Measurements: patent US20210283078A1, “Treatment of cholestatic pruritus” (CymaBay Therapeutics, Inc., priority 2017, published 2021)
Read-outs that look alike come from different tables or passages of the source.

Columns and labels:
[1] = system: PBC patients with pruritus; settings: Phase 2a; cited from earlier work
PBC patients = settings: 12-month trial, cited from earlier work
adult subjects with PBC [2] = test: Example 1: High dose trial in PBC (NCT02609048); type: in vivo, human; settings: for cases of asymptomatic increases in transaminases: reversible on cessation, no elevation of total bilirubin
Text: (§1) The trial subjects were adult, male or female, with a diagnosis of PBC by at least two of the following three criteria: (a) a history of alkaline phosphatase (ALP) above the upper limit of normal (ULN) for at least six months, (b) positive anti-mitochondrial antibody titers >1/40 on immunofluorescence or M2 positive by enzyme linked immunosorbent assay or positive PBC-specific antinuclear antibodies, and (c) documented liver biopsy result consistent with PBC, on a stable and recommended dose of UDCA for the past twelve months, and ALP≥1.67×ULN. Exclusion criteria included AST or ALT≥3×ULN, total bilirubin (TBIL)≥2×ULN, autoimmune hepatitis or a history of chronic viral hepatitis, PSC, the current use of fibrates or simvastatin, the use of colchicine, methotrexate, azathioprine, or systemic steroids in the previous two months, the use of an experimental treatment for PBC, and the use of an experimental or unapproved immunosuppressant. […] Pruritus was assessed using VAS, 5-D itch, and PBC-40. During the study, three cases of asymptomatic increases in transaminases were observed (two in the 200 mg and one in the 50 mg groups): all were reversible on cessation of treatment and were not accompanied by elevation of total bilirubin. Since the study had already shown a clear efficacy signal, the study was discontinued.

adult subjects with PBC [3] = test: Example 2: Low-dose trial in PBC (NCT02955602), pruritus by VAS; type: in vivo, human; settings: for baseline median VAS: subjects with VAS>0 at baseline; for median change in VAS: week 26
Text: as §1
At 12 weeks, the results of pruritus assessment by VAS (0-100 scale) were as follows:
37 subjects with VAS>0 at baseline were analysed in the interim analysis at 26 weeks: 18 subjects in the 5/10 mg group and 19 in the 10 mg group. Baseline median VAS were 15 (range 1-68) and 50 (range 5-90) in the 5/10 mg and 10 mg groups, respectively. At week 26, median changes in VAS were −50% and −55% in the 5/10 mg and 10 mg groups, respectively.

[4] = system: adult subjects with PSC, PFIC, or AS; test: Example 3: treatment of subjects with hepatobiliary disease associated with pruritus; type: in vivo, human; settings: 1, 2, 5, and 10 mg/day oral
Method: Subjects are permitted their usual other medications, including UDCA. […] At each visit, the subjects are assessed for cholestatic symptoms and biomarkers, and assessed for cholestatic pruritus. The subjects also maintain health diaries, which are reviewed at each visit.

[5] = system: patients with cholestatic pruritus; settings: several studies; cited from earlier work
[6] = system: patients with cholestatic pruritus; settings: more recent study; cited from earlier work
[7] = system: patients with cholestatic pruritus; settings: two studies; cited from earlier work

## CCCC[C@]1(CC)CS(=O)(=O)c2cc(CNC(CC(=O)O)CC(=O)O)c(OC)cc2[C@@H](c2ccccc2)N1 [GSK2330672]
[1]
  diarrhea (most common side effect), subjects: 33%
  reductions in itch scores (1-10 numerical rating scale, PBC-40 itch domain score, 5-D itch scale) vs placebo: significantly greater reductions in itch scores

## CC[C@H]1[C@@H](O)[C@@H]2[C@H](CC[C@]3(C)[C@@H]([C@H](C)CCC(=O)O)CC[C@@H]23)[C@@]2(C)CC[C@@H](O)C[C@@H]12 [OCALIVA, 6α-ethylchenodeoxycholic acid]
PBC patients; 10 mg arm
  severe pruritus, patients: 23%
PBC patients; titration arm
  severe pruritus, patients: 19%

## CCO[C@H](COc1ccc(C(F)(F)F)cc1)CSc1ccc(OCC(=O)O)c(C)c1 [Seladelpar, [4-({(2R)-2-ethoxy-3-[4-(trifluoromethyl)phenoxy]propyl}sulfanyl)-2-methylphenoxy]acetic acid]
Adult subjects with PBC [2]; 50 mg/day oral
  cases of asymptomatic increases in transaminases: one
Adult subjects with PBC [2]; 200 mg/day oral
  cases of asymptomatic increases in transaminases: two
Adult subjects with PBC [2]; 50 or 200 mg/day oral
  adverse events of pruritus on treatment: no adverse events of pruritus were reported
Adult subjects with PBC [2]; 50 or 200 mg/day oral, at least two weeks of treatment
  anti-cholestatic effect (primary endpoint ALP): a potent anti-cholestatic effect was observed
Adult subjects with PBC [3]; 5 mg/day and 10 mg/day, 12 weeks
  effect on cholestatic pruritus associated with PBC: significantly reduced the cholestatic pruritus
Adult subjects with PBC [3]; 5 mg/day, Visit 2 (Day 1)
  pruritus VAS (0-100 scale), median: 8
Adult subjects with PBC [3]; 5 mg/day, Visit 3 (Week 1)
  pruritus VAS (0-100 scale), median: 10
Adult subjects with PBC [3]; 5 mg/day, Visit 4 (Week 2)
  pruritus VAS (0-100 scale), median: 9
Adult subjects with PBC [3]; 5 mg/day, Visit 5 (Week 4)
  pruritus VAS (0-100 scale), median: 10
Adult subjects with PBC [3]; 5 mg/day, Visit 6 (Week 6)
  pruritus VAS (0-100 scale), median: 5
Adult subjects with PBC [3]; 5 mg/day, Visit 7 (Week 8)
  pruritus VAS (0-100 scale), median: 7
Adult subjects with PBC [3]; 5 mg/day, Visit 8 (Week 12)
  pruritus VAS (0-100 scale), median: 3
Adult subjects with PBC [3]; 10 mg group, n=19
  baseline median VAS: 50 (range 5-90)
Adult subjects with PBC [3]; 10 mg group
  median change in VAS: −55%
Adult subjects with PBC [3]; 10 mg/day, Visit 2 (Day 1)
  pruritus VAS (0-100 scale), median: 25
Adult subjects with PBC [3]; 10 mg/day, Visit 3 (Week 1)
  pruritus VAS (0-100 scale), median: 13
Adult subjects with PBC [3]; 10 mg/day, Visit 4 (Week 2)
  pruritus VAS (0-100 scale), median: 30
Adult subjects with PBC [3]; 10 mg/day, Visit 5 (Week 4)
  pruritus VAS (0-100 scale), median: 20
Adult subjects with PBC [3]; 10 mg/day, Visit 6 (Week 6)
  pruritus VAS (0-100 scale), median: 10
Adult subjects with PBC [3]; 10 mg/day, Visit 7 (Week 8)
  pruritus VAS (0-100 scale), median: 15
Adult subjects with PBC [3]; 10 mg/day, Visit 8 (Week 12)
  pruritus VAS (0-100 scale), median: 6
Adult subjects with PBC [3]; 10 mg/day, after five days, subject entered with intense pruritus
  subjects discontinued for increased pruritus possibly related to PBC: One
Adult subjects with PBC [3]; 5/10 mg group, n=18
  baseline median VAS: 15 (range 1-68)
Adult subjects with PBC [3]; 5/10 mg group
  median change in VAS: −50%
Adult subjects with PBC [3]; at 26 weeks
  discontinuations related to seladelpar: no discontinuations related to seladelpar
  serious adverse events due to pruritus: no serious adverse events due to pruritus
Adult subjects with PBC [3]; at 26 weeks, 24/119 subjects
  pruritus reported as an adverse event: 20%
Adult subjects with PBC [3]; doses as low as 5 mg/day, at 12 weeks
  effect on cholestasis, transaminases, LDL-cholesterol, inflammation: reversed cholestasis, decreased transaminases, decreased LDL-cholesterol, and reduced inflammation
[4]
  improvement in disease (decrease in ALP and GGT): improvement in their disease

## C=C1CC[C@@]2(O)[C@H]3Cc4ccc(O)c5c4[C@@]2(CCN3CC2CC2)[C@H]1O5 [nalmefene]
[5]
  reduction of cholestatic pruritus vs control intervention: more likely to reduce cholestatic pruritus than the control intervention

## C=CCN1CC[C@]23c4c5ccc(O)c4O[C@H]2C(=O)CC[C@@]3(O)[C@H]1C5 [naloxone]
[5]
  reduction of cholestatic pruritus vs control intervention: more likely to reduce cholestatic pruritus than the control intervention

## O=C1CC[C@@]2(O)[C@H]3Cc4ccc(O)c5c4[C@@]2(CCN3CC2CC2)[C@H]1O5 [naltrexone]
[5]
  reduction of cholestatic pruritus vs control intervention: more likely to reduce cholestatic pruritus than the control intervention

## CO[C@H]1/C=C/O[C@@]2(C)Oc3c(C)c(O)c4c(O)c(c(/C=N/N5CCN(C)CC5)c(O)c4c3C2=O)NC(=O)/C(C)=C\C=C\[C@H](C)[C@H](O)[C@@H](C)[C@@H](O)[C@@H](C)[C@H](OC(C)=O)[C@@H]1C [rifampicin]
[6]
  incidence of significant hepatitis: 7.3%

## CN[C@H]1CC[C@@H](c2ccc(Cl)c(Cl)c2)c2ccccc21 [sertraline]
[7]
  tolerability and reduction of itch intensity: well tolerated and moderately effective
